Source: patent publication US10800772B2 (Gilead Sciences, Inc., priority 2016, dated 2020)
Where two headings read alike, the source gives them in different places.

What was measured:
Type in all cases: cell-based, HIV-1
[1] = tested on: HIV-IIIb (wildtype); test: Antiviral assay in MT4 cells, HIV-IIIb wildtype; conditions: read-out: WT EC50
Outline: (§1)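 Each EC50 is the compound concentration that reduced CellTiter-Glo luminescence by 50% after 5 days of culture of HIV-IIIb-infected MT4 cells. Infection was at 0.004 m.o.i. with 3 h pre-incubation. Testing used 10 concentrations in quadruplicate.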

[2] = tested on: HIV-IIIb IN T174I BT; test: Antiviral assay in MT4 cells, HIV-IIIb IN T174I BT virus (from viral breakthrough); conditions: Human immunodeficiency virus 1, IIIB, MT4, 120 h, read-out: T174I BT EC50, MT4 cells, HIV-IIIb IN T174I BT (viral breakthrough), 5 days, CellTiter-Glo
Outline: as §1

[3] = tested on: HIV-IIIb IN T174I DE; test: Antiviral assay in MT4 cells, HIV-IIIb IN T174I DE virus (from dose escalation passaging); conditions: Human immunodeficiency virus 1, IIIB, MT4, 120 h, read-out: T174I DE EC50, MT4 cells, HIV-IIIb IN T174I DE (dose escalation), 5 days, CellTiter-Glo
Outline: as §1

[4] = Human immunodeficiency virus 1, 120 h, MT4 cells, HIV-IIIb wildtype, 5 days, CellTiter-Glo
[5] = Human immunodeficiency virus 1, IIIB, MT4, 120 h

Structure (SMILES) | EC50 [1, 4] [nM] | EC50 [2] [nM] | EC50 [3] [nM] | EC50 [1, 5] [nM]
Cc1cc2nc(-c3ccc4c(c3)c(C3CCN(C5CCC5)CC3)nn4C)sc2c(-c2ccc(Cl)cc2)c1[C@H](OC(C)(C)C)C(=O)O [Compound 129, (S)-2-(tert-butoxy)-2-(7-(4-chloro-phenyl)-2-(3-(1-cyclobutylpiperidin-4-yl)-1-methyl-1H-indazol-5-yl)-5-methylbenzo[d]thiazol-6-yl) acetic acid] | 5 | 509 | 696 | 
Cc1cc2nc(-c3ccc4c(c3)c(N3CCCN(C)CC3)nn4C)sc2c(-c2ccc(Cl)cc2)c1[C@H](OC(C)(C)C)C(=O)O [Compound 132, (S)-2-(tert-butoxy)-2-(7-(4-chloro-phenyl)-5-methyl-2-(1-methyl-3-(4-methyl-1,4-diazepan-1-yl)-1H-indazol-5-yl)benzo[d]thiazol-6-yl)acetic acid] |  | 1100 | 1680 | 25
Cc1cc2nc(-c3ccc4c(c3)c(N3CCC(N5CCC5)CC3)nn4C)sc2c(-c2ccc(Cl)cc2)c1[C@H](OC(C)(C)C)C(=O)O [Compound 136, (S)-2-(2-(3-(4-(azetidin-1-yl)piperidin-1-yl)-1-methyl-1H-indazol-5-yl)-7-(4-chlorophenyl)-5-methylbenzo[d]thiazol-6-yl)-2-(tert-butoxy) acetic acid] |  | 857 | 1700 | 14
Cc1cc2nc(-c3ccc4c(c3)c(N3CCC(C)(C(=O)N(C)C)CC3)nn4C)sc2c(-c2ccc(Cl)cc2)c1[C@H](OC(C)(C)C)C(=O)O [Compound 137, (S)-2-(tert-butoxy)-2-(7-(4-chloro-phenyl)-2-(3-(4-(dimethyl-carbamoyl)-4-methylpiperidin-1-yl)-1-methyl-1H-indazol-5-yl)-5-methylbenzo[d]thiazol-6-yl) acetic acid] |  | 697 | 962 | 10
Cc1cc2nc(-c3ccc4c(c3)c(N3CCN5C(=O)COC[C@@H]5C3)nn4C)sc2c(-c2ccc(Cl)cc2)c1[C@H](OC(C)(C)C)C(=O)O [Compound 138, (S)-2-(tert-butoxy)-2-(7-(4-chloro-phenyl)-5-methyl-2-(1-methyl-3-((S)-4-oxohexa-hydropyrazino[2,1-c][1,4]oxazin-8 (1H)-yl)-1H-indazol-5-yl)benzo[d]thiazol-6-yl)acetic acid] |  | 373 | 678 | 7
CO[C@H]1CCN(c2nn(C)c3ccc(-c4nc5cc(C)c([C@H](OC(C)(C)C)C(=O)O)c(-c6ccc(Cl)cc6)c5s4)cc23)C1 [Compound 139, (S)-2-(tert-butoxy)-2-(7-(4-chloro-phenyl)-2-(3-((S)-3-methoxy-pyrrolidin-1-yl)-1-methyl-1H-indazol-5-yl)-5-methylbenzo[d]thiazol-6-yl) acetic acid] |  | 7810 | 5780 | 88
CO[C@@H]1CCN(c2nn(C)c3ccc(-c4nc5cc(C)c([C@H](OC(C)(C)C)C(=O)O)c(-c6ccc(Cl)cc6)c5s4)cc23)C1 [Compound 140, (S)-2-(tert-butoxy)-2-(7-(4-chloro-phenyl)-2-(3-((R)-3-methoxy-pyrrolidin-1-yl)-1-methyl-1H-indazol-5-yl)-5-methylbenzo[d]thiazol-6-yl) acetic acid] |  | 2370 | 2630 | 29
Cc1cc2nc(-c3ccc4c(c3)c(N3CC5CCC(C3)O5)nn4C)sc2c(-c2ccc(Cl)cc2)c1[C@H](OC(C)(C)C)C(=O)O [Compound 141, (2S)-2-(2-(3-(8-oxa-3-azabicyclo [3.2.1]octan-3-yl)-1-methyl-1H-indazol-5-yl)-7-(4-chlorophenyl)-5-methylbenzo [d]thiazol-6-yl)-2-(tert-butoxy) acetic acid] |  | 3560 | 3930 | 24
COC1CCN(c2nn(C)c3ccc(-c4nc5cc(C)c([C@H](OC(C)(C)C)C(=O)O)c(-c6ccc(Cl)cc6)c5s4)cc23)CC1 [Compound 142, (S)-2-(tert-butoxy)-2-(7-(4-chloro-phenyl)-2-(3-(4-methoxypiperidin-1-yl)-1-methyl-1H-indazol-5-yl)-5-methylbenzo[d]thiazol-6-yl) acetic acid] |  | 1560 | 2330 | 12
Cc1cc2nc(-c3ccc4c(c3)c(N3CC5CC(C3)O5)nn4C)sc2c(-c2ccc(Cl)cc2)c1[C@H](OC(C)(C)C)C(=O)O [Compound 143, (2S)-2-(2-(3-(6-oxa-3-azabicyclo [3.1.1]heptan-3-yl)-1-methyl-1H-indazol-5-yl)-7-(4-chlorophenyl)-5-methylbenzo [d]thiazol-6-yl)-2-(tert-butoxy) acetic acid] | 27 | 5780 | 5610 | 
Cc1cc2nc(-c3ccc4c(c3)c(N3CCOCC3)nn4C)sc2c(-c2ccc(Cl)cc2)c1[C@H](OC(C)(C)C)C(=O)O [Compound 144, (S)-2-(tert-butoxy)-2-(7-(4-chloro-phenyl)-5-methyl-2-(1-methyl-3-morpholino-1H-indazol-5-yl)benzo[d]thiazol-6-yl)acetic acid] |  | 1810 | 3270 | 10
Cc1cc2nc(-c3ccc4c(c3)c(N3CCC(C5COC5)CC3)nn4C)sc2c(-c2ccc(Cl)cc2)c1[C@H](OC(C)(C)C)C(=O)O [Compound 146, (S)-2-(tert-butoxy)-2-(7-(4-chloro-phenyl)-5-methyl-2-(1-methyl-3-(4-(oxetan-3-yl)piperidin-1-yl)-1H-indazol-5-yl)benzo[d]thiazol-6-yl)acetic acid] |  | 1740 | 2220 | 31
CC(=O)N1CC[C@@H]1CN1CCC(c2nn(C)c3ccc(-c4nc5cc(C)c([C@H](OC(C)(C)C)C(=O)O)c(-c6ccc(Cl)cc6)c5s4)cc23)CC1 [Compound 148, (S)-2-(2-(3-(1-(((R)-1-acetyl-azetidin-2-yl)methyl)piperidin-4-yl)-1-methyl-1H-indazol-5-yl)-7-(4-chloro-phenyl)-5-methylbenzo[d]thiazol-6-yl)-2-(tert-butoxy) acetic acid] |  | 143 | 199 | 12
Cc1cc2nc(-c3ccc4c(c3)c(C3CCN(C[C@@H]5CCN5C)CC3)nn4C)sc2c(-c2ccc(Cl)cc2)c1[C@H](OC(C)(C)C)C(=O)O [Compound 149, (S)-2-(tert-butoxy)-2-(7-(4-chloro-phenyl)-5-methyl-2-(1-methyl-3-(1-(((S)-1-methyl-azetidin-2-yl)methyl)piperidin-4-yl)-1H-indazol-5-yl)benzo[d]thiazol-6-yl) acetic acid] |  | 80 | 98 | 11
COC(=O)N1CC[C@H]1CN1CCC(c2nn(C)c3ccc(-c4nc5cc(C)c([C@H](OC(C)(C)C)C(=O)O)c(-c6ccc(Cl)cc6)c5s4)cc23)CC1 [Compound 150, (S)-2-(tert-butoxy)-2-(7-(4-chloro-phenyl)-2-(3-(1-(((S)-1-(methoxy-carbonyl)azetidin-2-yl)methyl)piperidin-4-yl)-1-methyl-1H-indazol-5-yl)-5-methyl-benzo[d]thiazol-6-yl)acetic acid] |  | 214 | 182 | 4
CC(=O)N1CC[C@H]1CN1CCC(c2nn(C)c3ccc(-c4nc5cc(C)c([C@H](OC(C)(C)C)C(=O)O)c(-c6ccc(Cl)cc6)c5s4)cc23)CC1 [Compound 151, (S)-2-(2-(3-(1-(((S)-1-acetyl-azetidin-2-yl)methyl)piperidin-4-yl)-1-methyl-1H-indazol-5-yl)-7-(4-chloro-phenyl)-5-methylbenzo[d]thiazol-6-yl)-2-(tert-butoxy) acetic acid] |  | 237 | 231 | 16
Cc1cc2nc(-c3ccc4c(c3)c(C3CCN(C5CN(C(=O)C6CC6)C5)CC3)nn4C)sc2c(-c2ccc(Cl)cc2)c1[C@H](OC(C)(C)C)C(=O)O [Compound 152, (S)-2-(tert-butoxy)-2-(7-(4-chloro-phenyl)-2-(3-(1-(1-(cyclopropane-carbonyl)azetidin-3-yl)piperidin-4-yl)-1-methyl-1H-indazol-5-yl)-5-methylbenzo[d]thiazol-6-yl) acetic acid] |  | 175 | 210 | 23
COC(=O)N1CC(N2CCC(c3nn(C)c4ccc(-c5nc6cc(C)c([C@H](OC(C)(C)C)C(=O)O)c(-c7ccc(Cl)cc7)c6s5)cc34)CC2)C1 [Compound 153, (S)-2-(tert-butoxy)-2-(7-(4-chloro-phenyl)-2-(3-(1-(1-(methoxycarbonyl)azetidin-3-yl)piperidin-4-yl)-1-methyl-1H-indazol-5-yl)-5-methyl-benzo[d]thiazol-6-yl)acetic acid] |  | 159 | 217 | 11
Cc1cc2nc(-c3ccc4c(c3)c(C3CCN(C5CC(F)(F)C5)CC3)nn4C)sc2c(-c2ccc(Cl)cc2)c1[C@H](OC(C)(C)C)C(=O)O [Compound 155, (S)-2-(tert-butoxy)-2-(7-(4-chloro-phenyl)-2-(3-(1-(3,3-difluorocyclo-butyl)piperidin-4-yl)-1-methyl-1H-indazol-5-yl)-5-methylbenzo[d]thiazol-6-yl) acetic acid] |  | 922 | 1920 | 13
